From patent US12325725B2, “Cyclin-dependent kinase degraders and methods of use” (DANA-FARBER CANCER INSTITUTE, INC., priority 2018, dated 2025)
Like-named read-outs stand apart in the source and are kept apart here.

Columns and labels:
CDK8 [1] = target: T1, CDK8 (Homo sapiens (Human), UniProt P49336); assay: LanthaScreen Eu Kinase Binding Assay (competitive kinase binding assay); details: displacing the Tracer from the target kinase, read-out: Enzyme IC50
Procedure: The biological activities of the compounds of the present application can be assessed through a variety of methods known in the art. For example, a kinase competitive binding assay may be used to determine the activity of the compounds of the present application to bind to […]. […] The changes in the signal produced by the reporting ligand when the compound is present relative when the compound is absent are recorded, which are calculated to provide the IC50 of the compound. Compounds of the present application were tested in a competitive kinase binding assay by using commercially available assay system. For example, LanthaScreen® Eu Kinase Binding Assay (Invitrogen™) was used to measure the IC50 of the compounds of the present application in displacing the Tracer from binding to the target kinase, by following the assay protocol from Invitrogen™.
Target sequence in this assay (P49336 whole entry, looked up): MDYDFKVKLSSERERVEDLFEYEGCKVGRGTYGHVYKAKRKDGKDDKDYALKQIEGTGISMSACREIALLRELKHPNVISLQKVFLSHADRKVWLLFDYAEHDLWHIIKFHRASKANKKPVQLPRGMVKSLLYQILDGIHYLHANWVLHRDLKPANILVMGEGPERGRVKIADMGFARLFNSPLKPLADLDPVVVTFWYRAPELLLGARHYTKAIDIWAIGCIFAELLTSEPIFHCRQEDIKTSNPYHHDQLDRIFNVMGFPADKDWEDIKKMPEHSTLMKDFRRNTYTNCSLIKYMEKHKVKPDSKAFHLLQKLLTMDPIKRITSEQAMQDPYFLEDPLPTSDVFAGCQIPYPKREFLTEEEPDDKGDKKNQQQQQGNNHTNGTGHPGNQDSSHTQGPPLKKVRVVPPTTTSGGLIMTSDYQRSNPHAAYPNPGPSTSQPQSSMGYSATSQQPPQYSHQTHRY
Target sequence in this assay (P24863 whole entry partner, looked up): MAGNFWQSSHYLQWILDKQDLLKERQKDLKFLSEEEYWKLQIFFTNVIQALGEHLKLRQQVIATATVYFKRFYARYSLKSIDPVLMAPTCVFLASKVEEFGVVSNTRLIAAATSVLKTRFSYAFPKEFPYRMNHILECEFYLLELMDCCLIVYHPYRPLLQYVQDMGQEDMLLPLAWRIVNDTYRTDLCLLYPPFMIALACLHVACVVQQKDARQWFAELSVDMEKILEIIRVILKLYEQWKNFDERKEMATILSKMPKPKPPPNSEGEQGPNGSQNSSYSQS

[2] = system: pS727-STAT1 (CDK8 substrate) in HepG2 cells; assay: Western blot of S727-STAT1 phosphorylation in IFNγ-treated HepG2 cells; format: cell-based; details: 18 h with IFNγ, Compound 33 at 0.5, 1, 5 μM, DCA at 0.1, 1 μM
Procedure: FIG. 4 is a western blot illustrating inhibition of phosphorylation of S727-STAT1, a known CDK8 substrate, to form pS727-STAT1. pS727-STAT1 and total STAT1 were from HepG2 cells independently treated for 18 h with interferon gamma (IFNγ) and 0.5 μM, 1 μM, or 5 μM Compound 33, or with IFNγ and 0.1 μM or 1 μM dehydrocortistatin A (“DCA”).

CDK8 [3] = target: T1, CDK8; details: cited from earlier work
Target sequence in this assay (P49336 whole entry, looked up, species assumed): as the sequence (P49336 whole entry, looked up) above
Target sequence in this assay (P24863 whole entry partner, looked up, species assumed): as the sequence (P24863 whole entry partner, looked up) above

| Compound | IC50 (CDK8 [1]; Targeting Ligands of Table 1) [nM] | also measured |
| --- | --- | --- |
| C[C@]12CC[C@H]3[C@@H](CC=C4C[C@@H](O)CC[C@@]43C)[C@@H]1CC[C@@H]2c1ccc2ccncc2c1 [Compound 8a, (3S,8S,9S,10R,13S,14S,17S)-17-(isoquinolin-7-yl)-10,13-dimethyl-2,3,4,7,8,9,10,11,12,13,14,15,16,17-tetradecahydro-1H-cyclopenta[a]phenanthren-3-ol] | < 100 |  |
| C[C@]12CC[C@H](O)CC1=CC[C@@H]1[C@@H]2CC[C@]2(C)C(c3ccc4cnncc4c3)=CC[C@@H]12 [Compound 3] | > 6000 |  |
| C[C@]12CC[C@H](O)CC1=CC[C@@H]1[C@@H]2CC[C@]2(C)C(c3ccc4nc(N)ncc4c3)=CC[C@@H]12 [Compound 4] | 2000 to 6000 |  |
| CN1C(=O)CCC(N2C(=O)c3cccc(NCCOCCOCCOCCOCCC(=O)N(C)[C@H]4CC[C@]5(C)C6CC[C@]7(C)[C@@H](c8ccc9ccncc9c8)CC[C@H]7C6CC[C@H]5C4)c3C2=O)C1=O (stereo partly drawn) [Compound I-5, N-((3S,5S,10S,13S,14S,17S)-17-(isoquinolin-7-yl)-10,13-dimethylhexadecahydro-1H-cyclopenta[a]phenanthren-3-yl)-N-methyl--((2-(1-methyl-2,6-dioxopiperidin-3-yl)-1,3-dioxoisoindolin-4-yl)amino)-3,6,9,12-tetraoxapentadecan-15-amide] |  | IC50 (CDK8 [1]; bifunctional compounds): 301 to 700 nM |
| C[C@]12CC[C@H](n3ccnn3)C[C@@H]1CC[C@@H]1[C@@H]2CC[C@]2(C)[C@@H](c3ccc4ccncc4c3)CC[C@@H]12 [Compound 39, 7-((3S,8R,9S,10S,13S,14S,17S)-10,13-dimethyl-3-(1H-1,2,3-triazol-1-yl)hexadecahydro-1H-cyclopenta[a]phenanthren-17-yl)isoquinoline] | < 100 |  |
| C[C@]12CC[C@H]3[C@@H](CC=C4C[C@@H](O)CC[C@@]43C)[C@@H]1CC[C@@H]2c1ccc2[nH]ncc2c1 [Compound 12] | > 6000 |  |
| C[C@]12CC[C@H](O)CC1=CC[C@@H]1[C@@H]2CC[C@]2(C)C(c3ccc4cn[nH]c4c3)=CC[C@@H]12 [Compound 7] | > 6000 |  |
| C[C@]12CC[C@H]3[C@@H](CC=C4C[C@@H](O)CC[C@@]43C)[C@@H]1CC[C@@H]2c1ccc2cnncc2c1 [Compound 9] | > 6000 |  |
| C[C@]12CC[C@H]3[C@@H](CC=C4C[C@@H](O)CC[C@@]43C)[C@@H]1CC[C@@H]2c1ccc2cnccc2c1 [Compound 14] | 2000 to 6000 |  |
| C[C@]12CC[C@H]3[C@@H](CC=C4C[C@@H](O)CC[C@@]43C)[C@@H]1CC[C@@H]2c1ccc2nc(N)ncc2c1 [Compound 10] | 101 to 200 |  |
| C[C@]12CC[C@H](O)CC1=CC[C@@H]1[C@@H]2CC[C@]2(C)C(c3ccc4ccncc4c3)=CC[C@@H]12 [Compound 1, (3S,8R,9S,10R,13S,14S)-17-(isoquinolin-7-yl)-10,13-dimethyl-2,3,4,7,8,9,10,11,12,13,14,15-dodecahydro-1H-cyclopenta[a]phenanthren-3-ol] | 101 to 200 |  |
| CN(C)[C@@H]1CC[C@@]2(C)[C@@H](CC[C@@H]3[C@@H]2CC[C@]2(C)[C@@H](c4ccc5ccncc5c4)CC[C@@H]32)C1 [Compound 25] | < 100 |  |
| CC(=O)N(C)[C@H]1CC[C@@]2(C)[C@@H](CC[C@@H]3[C@@H]2CC[C@]2(C)[C@@H](c4ccc5ccncc5c4)CC[C@@H]32)C1 [Compound 47, N-((3S,8R,10S,13S,14S,17S)-17-(isoquinolin-7-yl)-10,13-dimethylhexadecahydro-1H-cyclopenta[a]phenanthren-3-yl)-N-methylacetamide] | < 100 |  |
| CN(C)[C@H]1CC[C@@]2(C)[C@@H](CC[C@@H]3[C@@H]2CC[C@]2(C)[C@@H](c4ccc5ccncc5c4)CC[C@@H]32)C1 [Compound 23, (3S,8R,9S,10S,13S,14S,17S)-(isoquinolin-7-yl)-N,N,10,13-tetramethylhexadecahydro-1H-cyclopenta[a]phenanthren-3-amine] | < 100 |  |
| C[C@]12CC[C@H]3[C@@H](CC=C4C[C@@H](O)CC[C@@]43C)[C@@H]1CC[C@@H]2c1ccc2cn[nH]c2c1 [Compound 13] | > 6000 |  |
| C[C@]12CC[C@H]3[C@@H](CC=C4C[C@@H](O)CC[C@@]43C)[C@@H]1CC[C@@H]2c1ccc2c(N)n[nH]c2c1 [Compound 11] | 301 to 700 |  |
| CN(C)[C@H]1CC[C@@]2(C)C(=CCC3[C@@H]4CC[C@H](c5ccc6ccncc6c5)[C@@]4(C)CC[C@@H]32)C1 (stereo in doubt) [Compound 33, (3S,8R,9S,10R,13S,14S)-17-(isoquinolin-7-yl)-N,N,10,13-tetramethyl-2,3,4,7,8,9,10,11,12,13,14,15,16,17-tetradecahydro-1H-cyclopenta[a]phenanthren-3-amine] | < 100 | inhibition of S727 phosphorylation (pS727-STAT1 vs total STAT1, western blot) [2]: dose-dependent inhibition |
| CN(C)[C@H]1C[C@@]23CC[C@@]4(O2)C(=CC[C@]2(C)C(c5ccc6ccncc6c5)=CC[C@H]24)C=C3[C@@H](O)[C@@H]1O [DCA, dehydrocortistatin A, reference compound] |  | IC50 (CDK8 [3]): 17 nM; inhibition of S727 phosphorylation (pS727-STAT1 vs total STAT1, western blot) [2]: dose-dependent inhibition |
| CN(C)[C@@H]1CC[C@@]2(C)[C@@H](CC[C@@H]3[C@@H]2CC[C@]2(C)C(c4ccc5ccncc5c4)=CC[C@@H]32)C1 [Compound 24] | 201 to 300 |  |
| C[C@]12CC[C@H](O)C[C@@H]1CC[C@@H]1[C@@H]2CC[C@]2(C)[C@@H](c3ccc4ccncc4c3)CC[C@@H]12 [Compound 8b] | 201 to 300 |  |
| CN(C(=O)CCOCCOCCNc1cccc2c1C(=O)N(C1CCC(=O)NC1=O)C2=O)[C@H]1CC[C@@]2(C)C(CCC3C4CC[C@H](c5ccc6ccncc6c5)C4(C)CCC32)C1 (stereo partly drawn) [Compound I-3, 3-(2-(2-((2-(2,6-dioxopiperidin-3-yl)-1,3-dioxoisoindolin-4-yl)amino)ethoxy)ethoxy)-N-((3S,10S,17S)-17-(isoquinolin-7-yl)-10,13-dimethylhexadecahydro-1H-cyclopenta[a]phenanthren-3-yl)-N-methylpropanamide] |  | IC50 (CDK8 [1]; bifunctional compounds): 201 to 300 nM |
| C[C@]12CC[C@H](O)C[C@@H]1CC[C@@H]1[C@@H]2CC[C@]2(C)C(c3ccc4ccncc4c3)=CC[C@@H]12 [Compound 2] | 701 to 2000 |  |
| CN(C(=O)CCOCCOCCOCCOCCNc1cccc2c1C(=O)N(C1CCC(=O)NC1=O)C2=O)[C@H]1CC[C@]2(C)C3CC[C@]4(C)[C@@H](c5ccc6ccncc6c5)CC[C@H]4C3CC[C@H]2C1 (stereo partly drawn) [Compound I-1, 1-((2-(2,6-dioxopiperidin-3-yl)-1,3-dioxoisoindolin-4-yl)amino)-N-((3S,5S,1&S,13S,14S,17S)-17-(isoquinolin-7-yl)-10,13-dimethylhexadecahydro-1H-cyclopenta[a]phenanthren-3-yl)-N-methyl-3,6,9,12-tetraoxapentadecan-15-amide] |  | IC50 (CDK8 [1]; bifunctional compounds): 101 to 200 nM |
| C[C@]12CC[C@H](O)CC1=CC[C@@H]1[C@@H]2CC[C@]2(C)C(c3ccc4[nH]ncc4c3)=CC[C@@H]12 [Compound 6] | > 6000 |  |
| CN(C(=O)CCOCCOCCNc1cccc2c1C(=O)N(C1CCC(=O)NC1=O)C2=O)[C@H]1CC[C@]2(C)C3CC[C@]4(C)[C@@H](c5ccc6ccncc6c5)CC[C@H]4C3CC[C@H]2C1 (stereo partly drawn) [Compound I-2, 3-(2-(2-((2-(2,6-dioxopiperidin-3-yl)-1,3-dioxoisoindolin-4-yl)amino)ethoxy)ethoxy)-N-((3S,10S,17S)-17-(isoquinolin-7-yl)-10,13-dimethylhexadecahydro-1H-cyclopenta[a]phenanthren-3-yl)-N-methylpropanamide] |  | IC50 (CDK8 [1]; bifunctional compounds): 101 to 200 nM |
